Target: T1, mouse TAAR1 (Mus musculus, UniProt Q923Y8)
T1 construct: expressed in transfected cells; host or cells: HEK293 (ATCC # CRL-1573), stably transfected with pIRESneo2 expression plasmid
Experiment: Radioligand binding on membranes of HEK293 cells stably expressing TAAR1, [3H]-rac-2-(1,2,3,4-tetrahydro-1-naphthyl)-2-imidazoline
Conditions: for Ki: mouse TAAR1, radioligand at 60 nM, 4° C., 30 min incubation
Protocol: For the construction of expression plasmids the coding sequences of human, rat and mouse TAAR 1 were amplified from genomic DNA essentially as described by Lindemann et al.. The Expand High Fidelity PCR System (Roche Diagnostics) was used with 1.5 mM Mg^2+ and purified PCR products were cloned into pCR2.1-TOPO cloning vector (Invitrogen) following the instructions of the manufacturer. PCR products were subcloned into the pIRESneo2 vector (BD Clontech, Palo Alto, Calif.), and expression vectors were sequence verified before introduction in cell lines.
HEK293 cells (ATCC # CRL-1573) were cultured essentially as described Lindemann et al. (2005). For the generation of stably transfected cell lines HEK293 cells were transfected with the pIRESneo2 expression plasmids containing the TAAR coding sequences (described above) with Lipofectamine 2000 (Invitrogen) according to the instructions of the manufacturer, and 24 hrs post transfection the culture medium was supplemented with 1 mg/ml G418 (Sigma, Buchs, Switzerland). After a culture period of about 10 d clones were isolated, expanded and tested for responsiveness to trace amines (all compounds purchased from Sigma) with the cAMP Biotrak Enzyme immunoassay (EIA) System (Amersham) following the non-acetylation EIA procedure provided by the manufacturer.
Cells at confluence were rinsed with ice-cold phosphate buffered saline without Ca^2+ and Mg^2+ containing 10 mM EDTA and pelleted by centrifugation at 1000 rpm for 5 min at 4° C. The pellet was then washed twice with ice-cold phosphate buffered saline and cell pellet was frozen immediately by immersion in liquid nitrogen and stored until use at −80° C. Cell pellet was then suspended in 20 ml HEPES—NaOH (20 mM), pH 7.4 containing 10 mM EDTA, and homogenized with a Polytron (PT 3000, Kinematica) at 10,000 rpm for 10 s. The homogenate was centrifuged at 48,000×g for 30 min at 4° C. and the pellet resuspended in 20 ml HEPES—NaOH (20 mM), pH 7.4 containing 0.1 mM EDTA (buffer A), and homogenized with a Polytron at 10,000 rpm for 10 s. The homogenate was then centrifuged at 48,000×g for 30 min at 4° C. and the pellet resuspended in 20 ml buffer A, and homogenized with a Polytron at 10,000 rpm for 10 s. Protein concentration was determined by the method of Pierce (Rockford, Ill.). The homogenate was then centrifuged at 48,000×g for 10 min at 4° C., resuspended in HEPES—NaOH (20 mM), pH 7.0 including MgCl2 (10 mM) and […] homogenized with a Polytron at 10,000 rpm for 10 s.
Binding assay was performed at 4° C. in a final volume of 1 ml, and with an incubation time of 30 min. The radioligand [^3H]-rac-2-(1,2,3,4-tetrahydro-1-naphthyl)-2-imidazoline was used at a concentration equal to the calculated Kd value of 60 nM to give a bound at around 0.1% of the total added radioligand concentration, and a specific binding which represented approximately 70-80% of the total binding. Non-specific binding was defined as the amount of [^3H]-rac-2-(1,2,3,4-tetrahydro-1-naphthyl)-2-imidazoline bound in the presence of the appropriate unlabelled ligand (10 μM). Competing ligands were tested in a wide range of concentrations (10 pM-30 μM). […] Each experiment was performed in duplicate. All incubations were terminated by rapid filtration through UniFilter-96 plates (Packard Instrument Company) and glass filter GF/C, pre-soaked for at least 2 h in polyethylenimine 0.3%, and using a Filtermate 96 Cell Harvester (Packard Instrument Company). The tubes and filters were then washed 3 times with 1 ml aliquots of cold buffer B. Filters were not dried and soaked in Ultima gold (45 μl/well, Packard Instrument Company) and bound radioactivity was counted by a TopCount Microplate Scintillation Counter (Packard Instrument Company).

T1 sequence (Q923Y8 whole entry): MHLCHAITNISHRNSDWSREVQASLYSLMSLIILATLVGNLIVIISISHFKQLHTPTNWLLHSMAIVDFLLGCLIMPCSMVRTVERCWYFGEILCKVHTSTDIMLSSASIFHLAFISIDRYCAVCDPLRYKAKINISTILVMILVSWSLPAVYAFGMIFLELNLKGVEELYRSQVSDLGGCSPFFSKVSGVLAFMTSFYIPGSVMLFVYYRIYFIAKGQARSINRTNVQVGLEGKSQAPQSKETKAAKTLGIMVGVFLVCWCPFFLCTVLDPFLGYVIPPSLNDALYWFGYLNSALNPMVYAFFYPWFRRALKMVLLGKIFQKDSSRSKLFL

SMILES	Kd (radioligand used in the TAAR1 binding assay, TAAR1 species not given, read-out: calculated Kd value of the radioligand) [nM]	Ki [µM]
c1ccc2c(c1)CCCC2C1=NCCN1 (racemic) [[^3H]-rac-2-(1,2,3,4-tetrahydro-1-naphthyl)-2-imidazoline, reference compound]	60	–
Cc1cccc(C)c1N=C1NCCN1 [Example 2, (4,5-Dihydro-1H-imidazol-2-yl)-(2,6-dimethyl-phenyl)-amine or tautomer]	–	0.149
CCc1cccc(CC)c1NC1=NCCN1 [Example 3, (2,6-Diethyl-phenyl)-(4,5-dihydro-1H-imidazol-2-yl)-amine or tautomer]	–	0.026
Brc1cccc(Br)c1N=C1NCCN1 [Example 6, (2,6-Dibromo-phenyl)-imidazolidin-2-ylidene-amine or tautomer]	–	0.501
CCc1cccc(C)c1NC1=NCCN1 [Example 7, (4,5-Dihydro-1H-imidazol-2-yl)-(2-ethyl-6-methyl-phenyl)-amine or tautomer]	–	0.169
Cc1cccc(C(C)C)c1NC1=NCCN1 [Example 8, (4,5-Dihydro-1H-imidazol-2-yl)-(2-isopropyl-6-methyl-phenyl)-amine or tautomer]	–	0.476
Cc1ccc(Cl)cc1N=C1NCCN1 [Example 9, (5-Chloro-2-methyl-phenyl)-imidazolidin-2-ylidene-amine or tautomer]	–	0.225
O=C(CCc1ccc(NC2=NCCN2)cc1)c1ccc2ccccc2c1 [Example 11, 3-[4-(4,5-Dihydro-1H-imidazol-2-ylamino)-phenyl]-1-naphthalen-2-yl-propan-1-one ortautomer]	–	0.121
c1ccc2c(N=C3NCCN3)cccc2c1 [Example 14, Imidazolidin-2-ylidene-naphthalen-1-yl-amineor tautomer]	–	0.036
c1cc2c(c(NC3=NCCN3)c1)CCCC2 [Example 15, (4,5-Dihydro-1H-imidazol-2-yl)-(5,6,7,8-tetrahydro-naphthalen-1-yl)-amine or tautomer]	–	0.039
Cc1csc(Cl)c1NC1=NCCN1 [Example 16, (2-Chloro-4-methyl-thiophen-3-yl)-(4,5-dihydro-1H-imidazol-2-yl)-amine or tautomer]	–	0.294
Clc1cccc(Cl)c1SC1=NCCN1 [Example 18, 2-(2,6-Dichloro-phenylsulfanyl)-4,5-dihydro-1H-imidazole]	–	0.03
